Laboratory results from paper PMC7246765, “Development of a Radiofluorinated Adenosine A2B Receptor Antagonist as Potential Ligand for PET Imaging” (International Journal of Molecular Sciences, 2020).
Values joined by “and” are separate entries in the source; they are usually repeats but may differ in a detail not shown here. Equal values may be shown once.

How the values were obtained:
[1] = molecular target: T1, human adenosine A3 receptor (Homo sapiens, UniProt P0DMS8); assay: Competitive radioligand binding with [3H]PSB-11, membranes of CHO or HEK cells
T1 construct: host or cells: CHO or HEK cells
T1 sequence (P0DMS8 1-318): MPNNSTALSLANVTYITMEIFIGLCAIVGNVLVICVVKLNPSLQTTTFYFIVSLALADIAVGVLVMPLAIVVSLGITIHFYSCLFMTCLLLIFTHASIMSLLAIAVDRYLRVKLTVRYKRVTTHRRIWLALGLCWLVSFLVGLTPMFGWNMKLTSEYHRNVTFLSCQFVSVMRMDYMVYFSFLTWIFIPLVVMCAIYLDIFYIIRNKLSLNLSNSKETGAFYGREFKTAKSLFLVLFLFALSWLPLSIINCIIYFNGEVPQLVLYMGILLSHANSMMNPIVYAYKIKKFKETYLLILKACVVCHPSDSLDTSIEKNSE
Description: (§1) The binding affinities of 2 and 9 at the four human adenosine receptor subtypes A2B, A2A, A1, and A3, presented in Table 1, were determined in competitive binding assays using appropriate radioligands and membrane preparations of Chinese hamster ovary (CHO) cells or human embryonic kidney (HEK) cells, respectively, recombinantly expressing the corresponding human receptor subtype.
(§2) Membrane preparations of recombinant CHO or HEK (human embryonic kidney) cells expressing the respective human adenosine receptor subtype were obtained according to Borrman et al. or purchased from Perkin Elmer, Germany. Radioligand binding assays using human A1, A2A, A2B and A3 receptors were performed according to Alnouri et al..
(§3) [^3H](R)-8-ethyl-4-methyl-2-(phenyl)1,4,7,8-tetrahydro-5H-imidazo[2,1-i]purin-5-one ([^3H]PSB-11, molar activity: 53 Ci/mmol, 1 nM [30]) for the A3 receptor. Three separate experiments were performed to determine the Ki values. All data were analyzed with GraphPad Prism, Version 4.1 (GraphPad Inc., La Jolla, CA,USA).

[2] = molecular target: T2, human adenosine A2A receptor (Homo sapiens, UniProt P29274); assay: Competitive radioligand binding with [3H]MSX-2, membranes of CHO or HEK cells
T2 construct: host or cells: CHO or HEK cells
T2 sequence (P29274 whole entry): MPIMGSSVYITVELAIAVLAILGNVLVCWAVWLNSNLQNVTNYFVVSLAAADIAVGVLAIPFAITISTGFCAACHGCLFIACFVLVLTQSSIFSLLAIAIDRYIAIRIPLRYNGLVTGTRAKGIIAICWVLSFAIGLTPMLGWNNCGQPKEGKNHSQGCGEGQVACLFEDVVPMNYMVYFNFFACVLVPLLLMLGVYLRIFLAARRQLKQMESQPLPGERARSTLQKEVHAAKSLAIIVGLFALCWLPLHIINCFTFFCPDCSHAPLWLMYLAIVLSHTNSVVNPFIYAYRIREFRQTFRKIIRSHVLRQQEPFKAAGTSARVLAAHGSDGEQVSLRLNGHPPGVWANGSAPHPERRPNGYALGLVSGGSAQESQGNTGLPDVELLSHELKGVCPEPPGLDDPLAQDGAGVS
Description: as §1, §2
[^3H]3-(3-hydroxypropyl)-7-methyl-8-(m-methoxystyryl)-1-propargylxanthine, ([^3H]MSX-2, molar activity: 84 Ci/mmol, 1 nM [29]) for the A2A receptor,
as §3

[3] = molecular target: T3, human adenosine A1 receptor (Homo sapiens, UniProt P30542); assay: Competitive radioligand binding with [3H]CCPA, membranes of CHO or HEK cells
T3 construct: host or cells: CHO or HEK cells
T3 sequence (P30542 1-326): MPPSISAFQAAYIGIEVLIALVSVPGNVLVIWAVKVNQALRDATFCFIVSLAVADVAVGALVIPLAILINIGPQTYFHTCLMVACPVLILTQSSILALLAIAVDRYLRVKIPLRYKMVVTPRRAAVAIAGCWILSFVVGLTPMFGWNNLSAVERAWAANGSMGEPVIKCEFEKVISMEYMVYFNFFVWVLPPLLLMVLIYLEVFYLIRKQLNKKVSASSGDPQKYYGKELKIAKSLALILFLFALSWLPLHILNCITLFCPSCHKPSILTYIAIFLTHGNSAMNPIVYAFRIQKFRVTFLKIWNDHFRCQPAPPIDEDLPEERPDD
Description: as §1, §2
[^3H]2-Chloro-N^6cyclopentyladenosine ([^3H]CCPA, molar activity: 58 Ci/mmol, 1 nM [28]) for the A1 receptor,
as §3

[4] = molecular target: T4, human adenosine A2B receptor (Homo sapiens, UniProt P29275); assay: Competitive radioligand binding with [3H]PSB-603, membranes of CHO or HEK cells; details: mean ± SEM of three independent assays
T4 construct: host or cells: CHO or HEK cells
T4 sequence (P29275 1-332): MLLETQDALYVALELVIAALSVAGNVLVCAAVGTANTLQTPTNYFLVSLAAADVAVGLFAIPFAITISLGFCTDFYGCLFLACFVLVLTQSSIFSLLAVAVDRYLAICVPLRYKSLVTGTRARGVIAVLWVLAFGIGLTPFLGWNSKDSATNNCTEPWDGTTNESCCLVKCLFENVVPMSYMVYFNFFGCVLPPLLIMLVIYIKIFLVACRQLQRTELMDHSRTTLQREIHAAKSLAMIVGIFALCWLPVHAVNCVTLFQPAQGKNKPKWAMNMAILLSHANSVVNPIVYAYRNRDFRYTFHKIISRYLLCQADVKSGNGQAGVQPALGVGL
Description: as §1, §2
[^3H]8-(4-[4-(4-chlorophenyl)piperazine-1-sulfonyl]phenyl)-1-propyl-2,3,6,7-tetrahydro-1H-purine-2,6-dione ([^3H]PSB-603, molar activity: 73Ci/mmol, 0.3 nM [26]) for the A2B receptor, and
as §3

[5] = parameters: method as in PMID 30104122; details: mice, 30 min p.i.; cited from earlier work
[6] = Shake-flask lipophilicity, n-octanol/phosphate-buffered saline; assay type: physicochemical; details: n-octanol/PBS, n = 4
Description: The partition coefficient of [^18F]9 was experimentally determined for the n-octanol/PBS system by the shake-flask method as described previously.

[7] = Dynamic small-animal PET biodistribution, baseline and blocking with compound 2; assay type: in vivo, female CD-1 mice; details: for SUV 60 min p.i. lung / TAC peak SUV lung: single animals, n = 2
Description: We then performed a pilot study to estimate very basic characteristics of the pharmacokinetics of the new radiotracer via dynamic small-animal PET imaging with [^18F]9 in female CD-1 mice. The time–activity curves (TACs) obtained in different tissues under both baseline (administration of vehicle, n = 2) and blocking (administration of compound 2, n = 2) conditions are presented in Figure 3; the whole-body maximum intensity projections are shown in Figure S3 in the Supplementary Material. The overall biodistribution of [^18F]9 under baseline conditions corresponded to the known quite ubiquitous but physiologically not very dense expression of A2B receptors. Although higher levels of the A2B receptor protein have been reported in the literature for certain cell types, such as alveolar epithelial cells and endothelial cells, the resemblance of the TACs in peripheral organs such as lungs under baseline and blocking conditions indicated no target-specific retention of [^18F]9 (TAC peak SUV lung: 3.09 and 2.88 vs. 2.30 and 1.57, resp.; SUV60 min p.i., lung: 0.44 and 0.25 vs. 0.32 and 0.20, resp.). […] This discrepancy between our and Petroni’s results might indicate differences in the biological effects exerted by agonistic (BAY60-6583) or antagonistic (compound 2) A2B receptor ligands, as well as model-related differences such as the expression of A2B receptors. The latter option could also explain the about 10-fold lower uptake of [^18F]9 in the brown adipose tissue (BAT) of female CD-1 mice in comparison to the uptake of [^11C]-4 in the BAT of male Wistar rats.
The biodistribution of the radiotracer was assessed in female CD-1 mice (30.6 ± 0.4 g bodyweight) using a dedicated small-animal PET-MRI scanner (nanoScan, Mediso, Hungary) over 60 min followed by a subsequent T1-weighted MR. The anaesthetized (2% isoflurane, carrier gas mixture of 40% air and 60% O2) female CD-1 mice were kept on a heated animal bed to maintain body temperature during imaging. Vehicle (10% DMSO in isotonic 0.9% NaCl solution) or compound 2 at 1 mg/kg bodyweight were co-injected with the tracer ([^18F]9: injected dose of 6.9 ± 0.1 MBq, equivalent to 10.4 ± 0.9 fmol/g bodyweight) intravenously 20 seconds after starting the dynamic PET acquisition, performed in normal mode and with a coincidence mode 1–5. For subsequent dynamic reconstructions (Nucline v2.01, Mediso, Hungary) by Ordered Subset Expectation Maximization (OSEM3D) with an attenuation correction with four iterations, six subsets, and a voxel size of 0.4 mm^3, list mode data were sorted into sinograms (12 × 10 s, 6 × 30 s, 5 × 60 s, and 10 × 300 s). PMOD software (v4.005, PMOD Technologies LLC, Zurich, Switzerland) was used for analysis of reconstructed studies and the results are expressed as standardized uptake value (SUV) given in mean ± SD.

[8] = In vivo metabolism in mice, plasma and urine analysed by RP-HPLC and MLC; parameters: species or system CD-1 mice; details: 30 min p.i.
Description: The metabolism of [^18F]9 in vivo was investigated in CD-1 mice by taking blood and urine samples at 30 min post i.v. injection of the radiotracer (n = 2). Analysis of the respective samples was performed by micellar (MLC) and reversed-phase chromatography (RP-HPLC) as two complementary HPLC methods. MLC is also a reversed-phase HPLC mode, but it uses a mobile phase consisting of an aqueous solution with a surfactant above its critical micellar concentration. The formed micelles are able to dissolve the proteins and other components of a biological sample and therefore enable a direct injection of the plasma probe into the HPLC system without eliminating the tissue matrix. In contrast, for RP-HPLC analysis, aliquots of the plasma samples were treated with a mixture of ACN/water to precipitate the proteins, resulting in recoveries of activity of about 93%.
For metabolism studies (n = 2), [^18F]9 (30–40 MBq) was administered as a bolus in awake female CD-1 mice (10–12 weeks, 25–32 g) via the tail vein. At 30 min p.i., the animals were slightly anesthetized with isoflurane, and blood was sampled from retro-orbital plexus. Blood plasma was obtained as a supernatant after centrifugation of the whole blood samples (14,000 rpm, 1 min; Centrifuge 5418, Eppendorf Vertrieb Deutschland GmbH, Wesseling-Berzdorf, Germany). After cervical luxation of the animals, urine samples were obtained. All samples were weighed and the respective activity measured in a dose calibrator (ISOMED 2010; MED Nuklear-Medizintechnik Dresden GmbH, Dresden, Germany).
MLC: For preparation of the MLC samples, mouse plasma (20–50 µL) was dissolved in 200 µL of 200 mM aq. sodium dodecyl sulfate (SDS) and injected into the MLC system. The MLC system was built up as described previously. Separations were performed using a Reprosil-Pur C18-AQ column (250 × 4.6 mm + 10 mm pre-column, particle size: 10 µm) and an eluent mixture of EtOH/100 mM aq. SDS/25 mM (NH4)2HPO4 in gradient mode (0–10 min at 100% 100 mM aq. SDS, 10–15 min up to 10% EtOH, 15–20 min at 10% EtOH, 20–21 min up to 100% 100 mM aq. SDS; 21–30 min at 100% 100 mM aq. SDS) at a flow rate of 1.0 mL/min. The same HPLC apparatus was used as described in the radiochemistry part in generals.
RP-HPLC: Protein precipitation was performed by addition of an ice-cold mixture of ACN/water (9/1; v/v) in a ratio of 4:1 (v/v) of organic solvent to plasma. The sample workup was performed according to a procedure previously described in detail. The urine samples were diluted with water and directly injected. To analyze the samples, the same HPLC apparatus and method was used as described in the radiochemistry section.

[9] = blocking (compound 2, 1 mg/kg co-injected)

## O=c1[nH]c(=O)c2cc(-c3ccnc(F)c3)c(-c3ccco3)nc2[nH]1 [Compound 9, 6-(2-Fluoropyridin-4-yl)-7-(furan-2-yl)pyrido[2,3-d]pyrimidine-2,4(1H,3H)-dione]
[1]; [3H]PSB-11, mean ± SEM of three independent assays
  Ki: 286 ± 10 nM
[1]; ratio of Ki values
  Selectivity Ratio Ki(Ax)/Ki(A2B): A3/A2B: 114
[2]; [3H]MSX-2, mean ± SEM of three independent assays
  Ki: 107 ± 15 nM
[2]; ratio of Ki values
  Selectivity Ratio Ki(Ax)/Ki(A2B): A2A/A2B: 43
[3]; [3H]CCPA, mean ± SEM of three independent assays
  Ki: 149 ± 26 nM
[3]; ratio of Ki values
  Selectivity Ratio Ki(Ax)/Ki(A2B): A1/A2B: 59
[4]
  Ki: 2.51 ± 0.58 nM

## O=C(Nc1cnc(-c2ccnc([18F])c2)c(-c2ccccc2F)n1)C1CC1 [[^18F]1]
[5]
  intact radiotracer in plasma: 35%

## O=c1[nH]c(=O)c2cc(-c3ccnc([18F])c3)c(-c3ccco3)nc2[nH]1 [[^18F]9]
[6]
  logD: 1.4 ± 0.1
[7]; baseline (vehicle)
  SUV 60 min p.i. lung: 0.44 and 0.25
  TAC peak SUV lung: 3.09 and 2.88
[7]; baseline, mean (single values)
  SUV brain after 60 min p.i.: 0.11 (0.14 and 0.08)
  initial TAC peak SUV brain: 0.19 (0.20 and 0.17)
[7]; [9]
  SUV 60 min p.i. lung: 0.32 and 0.20
  TAC peak SUV lung: 2.30 and 1.57
[7]; co-administration of compound 2, mean (single values)
  TAC peak SUV brain: 0.12 (0.11 and 0.13)
[7]; female CD-1 mice, comparison with ref 13
  fold lower uptake in brown adipose tissue (BAT) versus [11C]-4 in BAT of male Wistar rats: about 10 fold
[8]; CD-1 mice
  activity concentration in urine (SUV): 75
[8]; CD-1 mice, i.v., n = 2
  intact radiotracer, fraction of total activity in plasma: about 60%
[8]; mouse plasma
  intact tracer in plasma, RP-HPLC, calculated considering the 93% recovery: 60%
[8]; mouse plasma, exemplary MLC chromatogram
  intact radiotracer in plasma, MLC: 57%
[8]; mouse plasma, exemplary RP-HPLC chromatogram
  intact radiotracer in plasma, RP-HPLC: 64%
